Data from patent US20130029991A1, “New Phenylsulfamoyl Benzamide Derivatives as Bradykinin Antagonists” (priority 2006, published 2013).
Counter-ions that a name gives are not always drawn.

Tests used:
[1] = molecular target: T1, human recombinant bradykinin B1 receptor (Homo sapiens, UniProt P46663); test: Human recombinant bradykinin B1 receptor binding; conditions: CHO cell membranes, [3H]-[Des-Arg10] Kallidin radioligand; read-out: B1 binding
T1 construct: host or cells: CHO cells
T1 sequence (P46663 1-353): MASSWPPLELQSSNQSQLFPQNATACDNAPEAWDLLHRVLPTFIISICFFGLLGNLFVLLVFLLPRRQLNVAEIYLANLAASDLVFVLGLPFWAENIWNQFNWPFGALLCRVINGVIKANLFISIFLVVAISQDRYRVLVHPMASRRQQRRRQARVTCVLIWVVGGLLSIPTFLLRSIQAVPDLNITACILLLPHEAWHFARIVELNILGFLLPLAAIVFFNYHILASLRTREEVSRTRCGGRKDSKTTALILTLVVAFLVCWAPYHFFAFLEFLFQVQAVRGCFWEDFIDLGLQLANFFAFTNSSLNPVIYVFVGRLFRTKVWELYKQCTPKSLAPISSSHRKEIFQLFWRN
Procedure: 1. Human Recombinant Bradykinin B1 Receptor Binding
Binding assays were carried out on human recombinant bradykinin) receptors (expressed in CHO cells) according to the Euroscreen Technical Data Sheet (Cat.No.:ES-091). 20 μg protein/tube was incubated with [3,4-prolyl-3,4-^3H(N)]-[Des-Arg^10] Kallidin as radioligand. Non specific binding was determined in the presence of 10 μM Lys-des-Arg^9-Bradykinin. The final incubation volume was 250 μl. Samples were incubated for 15 min. at 25° C. then were rapidly vacuum filtered through GF/B filters presoaked for at least 1 h in 0.5% PEI. Radioactivity was determined by liquid scintillation spectroscopy.

[2] = molecular target: T2, recombinant human B1 receptors (Homo sapiens, UniProt P46663); test: Functional assay: antagonist potency by cytosolic calcium measurement (fluo-4, plate reader fluorimeter) in CHO-B1 cells; assay type: cell-based; conditions: CHO-B1 cells, inhibition of LysDABK (EC80)-evoked [Ca2+]i elevation; read-out: B1 func.
T2 construct: host or cells: CHO (CHO-B1)
T2 sequence (P46663 1-353): T1 sequence (P46663 1-353)
Procedure: Assessment of Antagonist Potency at B1 and B2 Receptors In Vitro by Measurement of Cytosolic Calcium Ion Concentration with a Plate Reader Fluorimeter in Cells Expressing Recombinant Human B1 or B2 Receptors
Chinese hamster ovary (CHO) cells stably expressing recombinant human B1 (CHO-B1, Euroscreen) or B2 (CHO-B2, Perkin-Elmer) receptors were cultured in Dulbecco's Modified Eagle's Medium (DMEM) containing 10% Fetal Calf Serum (FCS), 100 U/ml penicillin, 0.1 mg/ml streptomycin, 0.25 μg/ml amphotericin B, 1% Minimum Essential Medium Eagle (MEM), non essential amino acid solution, […], 1% pyruvate (for the B2 cell line). Cells were kept at 37° C. in a humidified incubator in an atmosphere of 5% CO2/95% air and were passaged 1:4 three times a week. Cells were plated at 1.5-2.5×10^4 cell/well on standard 96-well microplates, measurements of cytosolic calcium ion concentration ([Ca^2+]i) were carried out 1-2 days after cell plating.
Measurements of [Ca^2+]i were carried out on CHO-B1 and CHO-B2 cells stably expressing human B1 and B2 receptors, respectively. Cells were grown in standard 96-well microplates and before the measurement were loaded with a fluorescent Ca^2+-sensitive dye, fluo-4/AM (2 μM): after removing the culture medium the dye was added to the cells (dissolved in assay buffer: 145 mM NaCl, 5 mM KCl, 2 mM MgCl2, 2 mM CaCl2, 10 mM HEPES, 20 mM D-glucose, 2 mM probenecid, 100 μl/well) and cells were incubated at 37° C. in a humidified incubator in an atmosphere of 5% CO2/95% air for 40-120 min. To stop dye loading cells were washed twice with assay buffer. After washing, various concentrations of the test compounds (diluted in extracellular medium from a DMSO stock solution, final DMSO concentration was <0.1%) or buffer were added to each well depending on the experimental setup. After incubation at 37° C. for 20-25 min. baseline and agonist-evoked changes of [Ca^2+]i were measured column by column with a plate reader fluorimeter (Fluoroskan Ascent, Labsystems). Excitation and detection of emission was carried out from the bottom of the plate. Filters used for Fluo-4: excitation filter—485 nm, emission filter—538 nm. The whole measurement process was performed at 37° C. and was controlled by custom software Inhibitory potency of the test compounds was assessed by measuring the reduction in the agonist-evoked [Ca^2+]i-elevation in the presence of different concentrations of the compounds. The agonists were LysDABK for CHO-B1, and bradykinin for CHO-B2 cells. Agonists were applied at an EC80 concentration, the EC80-values were derived from daily determined dose-response curves. Fluorescence data were expressed as ΔF/F (fluorescence change normalized to baseline). All treatments on a single plate were measured in multiple wells. Data from all wells with the same treatment were averaged and the average values were used for analysis. Inhibitory potency of a compound at a single concentration point was expressed as percent inhibition of the control agonist response. Sigmoidal concentration-inhibition curves were fitted to the data (derived from at least three independent experiments) and IC50-values were determined as the concentration that produces half of the maximal inhibition caused by the compound.

Compound | Ki [1] | IC50 [2]
O=C(CNC(=O)c1ccc(S(=O)(=O)Nc2ccccc2Oc2ccc(Cl)cc2Cl)cc1)NCCCn1ccnc1 [Example 29, 4-[2-(2,4-Dichloro-phenoxy)-phenylsulfamoyl]-N-[(3-imidazol-1-yl-propylcarbamoyl)-methyl]-benzamide] | < 20 nM | < 20 nM
O=C(CNC(=O)c1ccc(S(=O)(=O)Nc2ccccc2C(=O)c2ccccc2)cc1)NCC1CCNCC1 [Example 18, 4-(2-Benzoyl-phenylsulfamoyl)-N-{[(piperidin-4-ylmethyl)-carbamoyl]-methyl}-benzamide hydrochloride] | < 20 nM | < 20 nM
O=C(CNC(=O)c1ccc(S(=O)(=O)Nc2ccccc2Oc2ccc(Cl)cc2Cl)cc1)NCCCN1CCCCC1 [Example 2, 4-[2-(2,4-Dichloro-phenoxy)-phenylsulfamoyl]-N-[(3-piperidin-1-yl-propylcarbamoyl)-methyl]-benzamide] | < 20 nM | < 20 nM
O=C(CNC(=O)c1ccc(S(=O)(=O)Nc2cc(F)ccc2Oc2ccc(Br)cc2)cc1)NCC1CCNCC1 [Example 4, 4-[2-(4-Bromo-phenoxy)-5-fluoro-phenylsulfamoyl]-N-{[(piperidin-4-ylmethyl)-carbamoyl]-methyl}-benzamide trifluoroacetate] | < 20 nM | < 20 nM
O=C(CNC(=O)c1ccc(S(=O)(=O)Nc2ccccc2Oc2ccc(Br)cc2Cl)cc1)NCC1CCNCC1 [Example 37, 4-[2-(4-Bromo-2-chloro-phenoxy)-phenylsulfamoyl]-N-{[(piperidin-4-ylmethyl)-carbamoyl]-methyl}-benzamide hydrochloride] | < 20 nM | < 20 nM
O=C(CNC(=O)c1ccc(S(=O)(=O)Nc2ccccc2Oc2ccc(Cl)cc2Cl)cc1)NCCC1CCNCC1 [Example 22, 4-[2-(2,4-Dichloro-phenoxy)-phenylsulfamoyl]-N-[(2-piperidin-4-yl-ethylcarbamoyl)-methyl]-benzamide acetate] | < 20 nM | < 20 nM
CC1CCCCN1CCCNC(=O)CNC(=O)c1ccc(S(=O)(=O)Nc2ccccc2Oc2ccccc2)cc1 (stereo not shown) [Example 56, N-{[3-(2-Methyl-piperidin-1-yl)-propylcarbamoyl]-methyl}-4-(2-phenoxy-phenylsulfamoyl)-benzamide] | < 20 nM | < 20 nM
O=C(CNC(=O)c1ccc(S(=O)(=O)Nc2ccccc2Oc2ccccc2)cc1)N[C@H]1CC[C@H](CCN2CCCC2)CC1 [Example 50, trans-4-(2-Phenoxy-phenylsulfamoyl)-N-{[4-(2-pyrrolidin-1-yl-ethyl)-cyclohexyl-carbamoyl]-methyl}-benzamide] | < 20 nM | < 20 nM
COc1ccc(NS(=O)(=O)c2ccc(C(=O)NCC(=O)NCC3CCNCC3)cc2)c(Oc2ccc(Cl)cc2Cl)c1 [Example 11, 4-[2-(2,4-Dichloro-phenoxy)-4-methoxy-phenylsulfamoyl]-N-{[(piperidin-4-ylmethyl)-carbamoyl]-methyl}-benzamide hydrochloride] | 20 to 100 nM | 20 to 100 nM
N=C(N)NCc1ccc(CNC(=O)CNC(=O)c2ccc(S(=O)(=O)Nc3ccccc3Oc3ccc(Cl)cc3Cl)cc2)cc1 [Example 39, 4-[2-(2,4-Dichloro-phenoxy)-phenylsulfamoyl]-N-[(4-guanidinomethyl-benzylcarbamoyl)-methyl]-benzamide hydrochloride] | < 20 nM | < 20 nM
O=C(CNC(=O)c1ccc(S(=O)(=O)Nc2ccccc2Oc2ccc(Cl)cc2Cl)cc1)NCCCC1CCNCC1 [Example 61, 4-[2-(2,4-Dichloro-phenoxy)-phenylsulfamoyl]-N-[(3-piperidin-4-yl-propylcarbamoyl)-methyl]-benzamide hydrochloride] | < 20 nM | < 20 nM
O=C(CNC(=O)c1ccc(S(=O)(=O)Nc2cc(F)ccc2Oc2ccc(F)cc2)cc1)NCCC1CCNCC1 [Example 13, 4-[5-Fluoro-2-(4-fluoro-phenoxy)-phenylsulfamoyl]-N-[(2-piperidin-4-yl-ethylcarbamoyl)-methyl]-benzamide hydrochloride] | < 20 nM | < 20 nM
O=C(CNC(=O)c1ccc(S(=O)(=O)Nc2ccccc2Oc2ccc(F)cc2)cc1)NCC1CCNCC1 [Example 12, 4-[2-(4-Fluoro-phenoxy)-phenylsulfamoyl]-N-{[(piperidin-4-ylmethyl)-carbamoyl]-methyl}-benzamide hydrochloride] | < 20 nM | < 20 nM
N=C(N)N1CCC(CNC(=O)CNC(=O)c2ccc(S(=O)(=O)Nc3ccccc3Oc3ccc(Cl)cc3Cl)cc2)CC1 [Example 14, N-{[(1-Carbamimidoyl-piperidin-4-ylmethyl)-carbamoyl]-methyl}-4-[2-(2,4-dichloro-phenoxy)-phenylsulfamoyl]-benzamide hydrochloride] | < 20 nM | < 20 nM
O=C(CNC(=O)c1ccc(S(=O)(=O)Nc2ccccc2Oc2ccc(Cl)cc2Cl)cc1)NCCN1CCCCC1 [Example 23, 4-[2-(2,4-Dichloro-phenoxy)-phenylsulfamoyl]-N-[(2-piperidin-1-yl-ethylcarbamoyl)-methyl]-benzamide] | < 20 nM | < 20 nM
C[C@H](NC(=O)c1ccc(S(=O)(=O)Nc2ccccc2Oc2ccc(Cl)cc2Cl)cc1)C(=O)NCC1CCNCC1 [Example 8, 4-[2-(2,4-Dichloro-phenoxy)-phenylsulfamoyl]-N—{(S)-1-[(piperidin-4-ylmethyl)-carbamoyl]-ethyl}-benzamide hydrochloride] | < 20 nM | < 20 nM
O=C(NC(Cc1ccccc1)C(=O)NCC1CCNCC1)c1ccc(S(=O)(=O)Nc2ccccc2Oc2ccc(Cl)cc2Cl)cc1 (stereo not shown) [Example 6, 4-[2-(2,4-Dichloro-phenoxy)-phenylsulfamoyl]-N-{2-phenyl-1-[(piperidin-4-ylmethyl)-carbamoyl]-ethyl}-benzamide hydrochloride] | < 20 nM | < 20 nM
O=C(CNC(=O)c1ccc(S(=O)(=O)Nc2ccccc2Oc2ccccc2)cc1)NCC(=O)N1CCNCC1 [Example 16, N-[(2-Oxo-2-piperazin-1-yl-ethylcarbamoyl)-methyl]-4-(2-phenoxy-phenylsulfamoyl)-benzamide hydrochloride] | < 20 nM | < 20 nM
O=C(CNC(=O)c1ccc(S(=O)(=O)Nc2ccccc2Oc2ccccc2)cc1)Nc1ccc(N2CCC(N3CCCCC3)CC2)cc1 [Example 49, N-[(4-[1,4′]Bipiperidinyl-1′-yl-phenylcarbamoyl)-methyl]-4-(2-phenoxy-phenylsulfamoyl)-benzamide] | < 20 nM | < 20 nM
O=C(CNC(=O)c1ccc(S(=O)(=O)Nc2ccccc2Oc2ccccc2)cc1)NCCCN1CCC(N2CCCCC2)CC1 [Example 48, N-[(3-[1,4′]Bipiperidinyl-r-yl-propylcarbamoyl)-methyl]-4-(2-phenoxy-phenylsulfamoyl)-benzamide] | < 20 nM | < 20 nM
